Data taken from patent publication US20200289392A1, “A MELANOGENESIS INHIBITOR COMPOSITION” (Dow Global Technologies LLC, priority 2017, published 2020).

Molecular target: T1, tyrosinase (Homo sapiens, UniProt P14679)
T1 sequence (P14679 19-529): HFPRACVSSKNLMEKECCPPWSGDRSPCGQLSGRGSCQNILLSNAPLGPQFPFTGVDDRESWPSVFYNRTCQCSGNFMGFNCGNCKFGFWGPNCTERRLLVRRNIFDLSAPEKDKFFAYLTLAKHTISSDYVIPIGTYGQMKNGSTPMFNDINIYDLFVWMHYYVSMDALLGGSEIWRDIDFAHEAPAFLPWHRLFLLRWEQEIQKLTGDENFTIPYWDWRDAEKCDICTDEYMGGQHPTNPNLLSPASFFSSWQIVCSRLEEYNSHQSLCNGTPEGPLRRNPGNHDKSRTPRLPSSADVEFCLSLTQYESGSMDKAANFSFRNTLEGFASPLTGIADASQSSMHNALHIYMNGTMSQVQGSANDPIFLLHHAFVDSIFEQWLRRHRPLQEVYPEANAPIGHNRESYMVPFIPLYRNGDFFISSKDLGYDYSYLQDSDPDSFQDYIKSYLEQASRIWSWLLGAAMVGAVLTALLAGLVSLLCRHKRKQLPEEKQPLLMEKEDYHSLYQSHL
Assay: Tyrosinase inhibition
Format: biochemical
Settings: 0.1 wt % active concentration; compared to 0.1 wt % kojic acid

| tyrosinase inhibition activity compared to that of kojic acid | SMILES |
| --- | --- |
| negligible | COc1cc(/C=[N+](\[O-])C(C)C)ccc1O [VAN-IPHA, (Z)—N-(4-hydroxy-3-methoxybenzylidine)propan-2-amine oxide] |
| about 60% | CC(C)/[N+]([O-])=C/c1ccc(O)cc1 [pHBz-IPHA, (Z)—N-(4-hydroxybenzylidene)propan-2-amine oxide] |
